Results reported in PubChem BioAssay (NCI).
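Exposure lasted 48 hours, with cells grown in 96-well plates and compounds tested at five concentrations. TGI: concentration producing complete growth inhibition.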

Assays:
Assay in all cases: inhibition of tumour cell growth, NCI panel, 48 h
SNB-75 CNS = system: SNB-75 CNS
RPMI-8226 leukemia = system: RPMI-8226 leukemia
786-0 renal = system: 786-0 renal
K-562 leukemia = system: K-562 leukemia
OVCAR-3 ovarian = system: OVCAR-3 ovarian
A549 NSCLC = system: A549 NSCLC
SK-MEL-28 melanoma = system: SK-MEL-28 melanoma
HT29 colon = system: HT29 colon
A498 renal = system: A498 renal
KM12 colon = system: KM12 colon
ACHN renal = system: ACHN renal
SF-295 CNS = system: SF-295 CNS
NCI-H522 lung = system: NCI-H522 lung
SNB-78 CNS = system: SNB-78 CNS
SN12C renal = system: SN12C renal
EKVX NSCLC = system: EKVX NSCLC
LXFL 529 NSCLC = system: LXFL 529 NSCLC
UACC-62 melanoma = system: UACC-62 melanoma
SNB-19 CNS = system: SNB-19 CNS
TK-10 renal = system: TK-10 renal
COLO 205 colon = system: COLO 205 colon
NCI-H460 lung = system: NCI-H460 lung
RXF 393 renal = system: RXF 393 renal
DLD-1 colon = system: DLD-1 colon
OVCAR-4 ovarian = system: OVCAR-4 ovarian
NCI-H23 lung = system: NCI-H23 lung
HCC-2998 colon = system: HCC-2998 colon
U251 CNS = system: U251 CNS
SK-OV-3 ovarian = system: SK-OV-3 ovarian
M19-MEL melanoma = system: M19-MEL melanoma
SK-MEL-2 melanoma = system: SK-MEL-2 melanoma
OVCAR-8 ovarian = system: OVCAR-8 ovarian
DMS 273 small cell lung = system: DMS 273 small cell lung
NCI-H226 lung = system: NCI-H226 lung
SK-MEL-5 melanoma = system: SK-MEL-5 melanoma
UACC-257 melanoma = system: UACC-257 melanoma
OVCAR-5 ovarian = system: OVCAR-5 ovarian
LOX IMVI melanoma = system: LOX IMVI melanoma
IGROV1 ovarian = system: IGROV1 ovarian
UO-31 renal = system: UO-31 renal
SF-268 CNS = system: SF-268 CNS
KM20L2 colon = system: KM20L2 colon
SW-620 colon = system: SW-620 colon
HOP-62 NSCLC = system: HOP-62 NSCLC
MOLT-4 leukemia = system: MOLT-4 leukemia
M14 melanoma = system: M14 melanoma
CAKI-1 renal = system: CAKI-1 renal
SF-539 CNS = system: SF-539 CNS
HOP-92 NSCLC = system: HOP-92 NSCLC
HCT-116 colon = system: HCT-116 colon
HL-60(TB) leukemia = system: HL-60(TB) leukemia
CCRF-CEM leukemia = system: CCRF-CEM leukemia
DMS 114 small cell lung = system: DMS 114 small cell lung
HCT-15 colon = system: HCT-15 colon
XF 498 CNS = system: XF 498 CNS
MALME-3M melanoma = system: MALME-3M melanoma
SR leukemia = system: SR leukemia
PC-3 prostate = system: PC-3 prostate
MDA-MB-435 = system: MDA-MB-435
MDA-N = system: MDA-N
T-47D breast = system: T-47D breast
DU-145 prostate = system: DU-145 prostate
MDA-MB-231 breast = system: MDA-MB-231 breast
BT-549 breast = system: BT-549 breast
NCI/ADR-RES ovarian = system: NCI/ADR-RES ovarian
HS 578T breast = system: HS 578T breast
MCF7 breast = system: MCF7 breast

Measured: TGI

OC(c1ccccn1)C1CNc2ccccc21 (stereo not given)
> 100 µM: SNB-75 CNS | RPMI-8226 leukemia | 786-0 renal | K-562 leukemia | OVCAR-3 ovarian | A549 NSCLC | SK-MEL-28 melanoma | HT29 colon | A498 renal | KM12 colon | ACHN renal | SF-295 CNS | NCI-H522 lung | SNB-78 CNS | SN12C renal | EKVX NSCLC | LXFL 529 NSCLC | UACC-62 melanoma | SNB-19 CNS | TK-10 renal | COLO 205 colon | NCI-H460 lung | RXF 393 renal | DLD-1 colon | OVCAR-4 ovarian | NCI-H23 lung | HCC-2998 colon | U251 CNS | SK-OV-3 ovarian | M19-MEL melanoma | SK-MEL-2 melanoma | OVCAR-8 ovarian | DMS 273 small cell lung | NCI-H226 lung | SK-MEL-5 melanoma | UACC-257 melanoma | OVCAR-5 ovarian | LOX IMVI melanoma | IGROV1 ovarian | UO-31 renal | SF-268 CNS | KM20L2 colon | SW-620 colon | HOP-62 NSCLC | MOLT-4 leukemia | M14 melanoma | CAKI-1 renal | SF-539 CNS | HOP-92 NSCLC | HCT-116 colon | HL-60(TB) leukemia | CCRF-CEM leukemia | DMS 114 small cell lung | HCT-15 colon | XF 498 CNS | MALME-3M melanoma

Cc1cc(NS(=O)(=O)c2ccc(Nc3c4ccccc4nc4ccc(C(=O)Nc5ccc(S(N)(=O)=O)cc5)cc34)cc2)no1
> 100 µM: SNB-75 CNS | RPMI-8226 leukemia | 786-0 renal | K-562 leukemia | OVCAR-3 ovarian | A549 NSCLC | SK-MEL-28 melanoma | HT29 colon | A498 renal | KM12 colon | ACHN renal | SF-295 CNS | SR leukemia | NCI-H522 lung | PC-3 prostate | SN12C renal | MDA-MB-435 | EKVX NSCLC | UACC-62 melanoma | SNB-19 CNS | TK-10 renal | COLO 205 colon | NCI-H460 lung | RXF 393 renal | OVCAR-4 ovarian | NCI-H23 lung | MDA-N | HCC-2998 colon | U251 CNS | SK-OV-3 ovarian | SK-MEL-2 melanoma | OVCAR-8 ovarian | NCI-H226 lung | SK-MEL-5 melanoma | T-47D breast | DU-145 prostate | UACC-257 melanoma | MDA-MB-231 breast | OVCAR-5 ovarian | LOX IMVI melanoma | IGROV1 ovarian | BT-549 breast | NCI/ADR-RES ovarian | UO-31 renal | SF-268 CNS | HS 578T breast | SW-620 colon | HOP-62 NSCLC | MOLT-4 leukemia | M14 melanoma | CAKI-1 renal | SF-539 CNS | MCF7 breast | HOP-92 NSCLC | HCT-116 colon | HL-60(TB) leukemia | CCRF-CEM leukemia | HCT-15 colon | MALME-3M melanoma
